The text below walks through data of patent publication US8883792B2, “Substituted isoquinoline derivative” (D. Western Therapeutics Institute, Inc., priority 2010, dated 2014).

Where a name gives a salt, the structure may show the parent alone.

The subject of this experiment is rabbits (New Zealand White). Nature of the experiment: Ocular hypotensive effect in rabbits. It counts as in vivo, rabbit. The conditions noted are these: male New Zealand White rabbits, 0.04 mL eye drop, concentration of 1% (w/v) or lower, maximum ocular hypotensive rate vs vehicle-treated contralateral eye. Here is the method:
The compound of the present invention was administered to rabbits (New Zealand White, sex: male, 3 to 6 per group) and evaluated for its ocular hypotensive effect.
Each test compound was dissolved in a vehicle 1 (1.04 g of sodium dihydrogen phosphate dihydrate and 0.5 g of sodium chloride dissolved in purified water and then adjusted to pH 7.0 with sodium hydroxide to make the total amount to 100 mL) or a vehicle 2 (2% (w/v) aqueous boric acid solution) to prepare a test compound solution with a predetermined concentration.
The intraocular pressures of the rabbits were measured using Tiolat TonoVet handheld tonometer immediately before administration of test compound. The test compound solution and the vehicle were dropped at a volume of 0.04 mL to one eye and the contralateral eye, respectively, and the intraocular pressures were measured over time in the same way as above. The rate of the intraocular pressure of the eye receiving the test compound solution to that of the eye receiving the vehicle was calculated as an ocular hypotensive rate.
For the compound `C[C@H](CNCCc1cccc(F)c1)NS(=O)(=O)c1ccc2cnccc2c1.Cl` [Example 52, (R)—N-{1-(3-fluorophenethylamino)propan-2-yl}isoquinoline-6-sulfonamide hydrochloride], the Ocular hypotensive activity entry is recorded as “++ (maximum ocular hypotensive rate of 15% or more)”.

As for `C[C@H](CNCCc1ccc(F)cc1)NS(=O)(=O)c1ccc2cnccc2c1Br.Cl` [Example 77, (R)-5-bromo-N-{1-(4-fluorophenethylamino)propan-2-yl}-isoquinoline-6-sulfonamide hydrochloride], the Ocular hypotensive activity entry was “+ (maximum ocular hypotensive rate of 5% or more and less than 15%)”.

In the case of `C[C@H](CNC[C@@H](C)c1ccccc1)NS(=O)(=O)c1ccc2cnccc2c1` [Example 26, N—[(R)-1-{(S)-2-phenylpropylamino}propan-2-yl]isoquinoline-6-sulfonamide dihydrochloride], the Ocular hypotensive activity entry is on record as “++ (maximum ocular hypotensive rate of 15% or more)”.

Take `C[C@H](CNC/C=C/c1ccccc1)NS(=O)(=O)c1ccc2cnccc2c1` [Example 44, (R, E)-N-{1-(cinnamylamino)propan-2-yl}isoquinoline-6-sulfonamide dihydrochloride]: the Ocular hypotensive activity entry was “+ (maximum ocular hypotensive rate of 5% or more and less than 15%)”.

For `C[C@H](CNCCc1ccc(N)cc1)NS(=O)(=O)c1ccc2cnccc2c1.Cl.Cl.Cl` [Example 69, (R)—N-{1-(4-aminophenethylamino)propan-2-yl}isoquinoline-6-sulfonamide trihydrochloride], the Ocular hypotensive activity entry was “++ (maximum ocular hypotensive rate of 15% or more)”.

As for `C[C@H](CNCC1CC1)NS(=O)(=O)c1ccc2cnccc2c1` [Example 18, (R)—N-{1-(cyclopropylmethylamino)propan-2-yl}isoquinoline-6-sulfonamide dihydrochloride], the Ocular hypotensive activity result is “++ (maximum ocular hypotensive rate of 15% or more)”.

As for `C[C@H](CNCCc1ccccc1)NS(=O)(=O)c1ccc2cncc(-c3ccsc3)c2c1` [Example 115, (R)—N-{1-(phenethylamino)propan-2-yl}-4-(thiophen-3-yl) isoquinoline-6-sulfonamide dihydrochloride], the Ocular hypotensive activity result is listed as “++ (maximum ocular hypotensive rate of 15% or more)”.

Consider `COc1ccccc1CCNC[C@@H](C)NS(=O)(=O)c1ccc2cnccc2c1` [Example 28, (R)—N-{1-(2-methoxyphenethylamino)propan-2-yl}isoquinoline-6-sulfonamide dihydrochloride], for which the Ocular hypotensive activity entry is “++ (maximum ocular hypotensive rate of 15% or more)”.

As for `C[C@H](CNCCCc1ccccc1)NS(=O)(=O)c1ccc2cnccc2c1` [Example 34, (R)—N-{1-(3-phenylpropylamino)propan-2-yl}isoquinoline-6-sulfonamide dihydrochloride], the Ocular hypotensive activity result is “++ (maximum ocular hypotensive rate of 15% or more)”.

Consider `C[C@H](CNCCc1ccco1)NS(=O)(=O)c1ccc2cnccc2c1.Cl` [Example 66, (R)—N-[1-{2-(furan-2-yl)ethylamino}propan-2-yl]isoquinoline-6-sulfonamide hydrochloride], for which the Ocular hypotensive activity result is listed as “++ (maximum ocular hypotensive rate of 15% or more)”.

On to `C[C@H](CNCCc1ccccc1)N(CCO)S(=O)(=O)c1ccc2cnccc2c1` [Example 97, (R)—N-(2-hydroxyethyl)-N-{1-(phenethylamino)propan-2-yl}isoquinoline-6-sulfonamide dihydrochloride], for which the Ocular hypotensive activity result was “++ (maximum ocular hypotensive rate of 15% or more)”.

Consider `C[C@H](CC(N)CCc1ccccc1)NS(=O)(=O)c1ccc2cnccc2c1` (single isomer, unassigned; diastereomer a) [Example 118], for which the Ocular hypotensive activity result was “++ (maximum ocular hypotensive rate of 15% or more)”.

In the case of `C[C@@H](CNCCc1ccccc1)NS(=O)(=O)c1ccc2cnccc2c1` [Example 24, (S)—N-{1-(phenethylamino)propan-2-yl}isoquinoline-6-sulfonamide dihydrochloride], the Ocular hypotensive activity entry is “++ (maximum ocular hypotensive rate of 15% or more)”.

Take `CCCCCCNC[C@@H](C)NS(=O)(=O)c1ccc2cnccc2c1` [Example 22, (R)—N-{1-(hexylamino)propan-2-yl}isoquinoline-6-sulfonamide dihydrochloride]: the Ocular hypotensive activity entry is “++ (maximum ocular hypotensive rate of 15% or more)”.

Turning to `CCCNC[C@@H](C)NS(=O)(=O)c1ccc2cnccc2c1` [Example 4, (R)—N-{1-(propylamino)propan-2-yl}isoquinoline-6-sulfonamide dihydrochloride], the Ocular hypotensive activity entry was “++ (maximum ocular hypotensive rate of 15% or more)”.

As to `C[C@H](CNCC(O)c1cccc(Cl)c1)NS(=O)(=O)c1ccc2cnccc2c1` (stereo partly drawn) [Example 91, N-[(2R)-1-{2-(3-chlorophenyl)-2-hydroxyethylamino}propan-2-yl]isoquinoline-6-sulfonamide dihydrochloride], the Ocular hypotensive activity entry is reported as “++ (maximum ocular hypotensive rate of 15% or more)”.

With `C[C@H](CNCCc1cn(C)c2ccccc12)NS(=O)(=O)c1ccc2cnccc2c1.Cl` [Example 64, (R)—N-[1-{2-(1-methyl-1H-indol-3-yl)ethylamino}propan-2-yl]isoquinoline-6-sulfonamide hydrochloride], the Ocular hypotensive activity result is given as “++ (maximum ocular hypotensive rate of 15% or more)”.

In the case of `C[C@H](CNCCc1nnn[nH]1)NS(=O)(=O)c1ccc2cnccc2c1` [Example 95, (R)—N-[1-{2-(1H-tetrazol-5-yl)ethylamino}propan-2-yl]isoquinoline-6-sulfonamide dihydrochloride], the Ocular hypotensive activity entry was “+ (maximum ocular hypotensive rate of 5% or more and less than 15%)”.

In the case of `C[C@H](CNCCc1ccccc1)NS(=O)(=O)c1ccc2c(SCCN)nccc2c1` [Example 111, (R)-1-(2-aminoethylthio)-N-{1-(phenethylamino)propan-2-yl}isoquinoline-6-sulfonamide trihydrochloride], the Ocular hypotensive activity entry was “+ (maximum ocular hypotensive rate of 5% or more and less than 15%)”.

As to `C[C@H](CNCCc1cccc2ccccc12)NS(=O)(=O)c1ccc2cnccc2c1.Cl` [Example 46], the Ocular hypotensive activity result is “++ (maximum ocular hypotensive rate of 15% or more)”.

With `C[C@H](CNCCc1ccccc1)NS(=O)(=O)c1ccc2c(N)nccc2c1.Cl` [Example 109, (R)-1-amino-N-{1-(phenethylamino)propan-2-yl}isoquinoline-6-sulfonamide hydrochloride], the Ocular hypotensive activity entry is “+ (maximum ocular hypotensive rate of 5% or more and less than 15%)”.

Consider `C[C@H](CN1CCNCC1)NS(=O)(=O)c1ccc2cnccc2c1` [Example 13, (R)—N-{1-(piperazin-1-yl)propan-2-yl}isoquinoline-6-sulfonamide trihydrochloride], for which the Ocular hypotensive activity entry is “+ (maximum ocular hypotensive rate of 5% or more and less than 15%)”.

`Cc1cncc2ccc(S(=O)(=O)N[C@H](C)CNCCc3ccc(F)cc3)cc12.Cl` [Example 113, (R)—N-{1-(4-fluorophenethylamino)propan-2-yl}-4-methyl-isoquinoline-6-sulfonamide hydrochloride]: the Ocular hypotensive activity entry is on record as “++ (maximum ocular hypotensive rate of 15% or more)”.

For the compound `CCCCN[C@H](C)CNS(=O)(=O)c1ccc2cnccc2c1` [Example 11, (R)—N-{2-(butylamino)propyl}isoquinoline-6-sulfonamide dihydrochloride], the Ocular hypotensive activity entry is “+ (maximum ocular hypotensive rate of 5% or more and less than 15%)”.

Regarding `C[C@H](CNCCc1c[nH]nn1)NS(=O)(=O)c1ccc2cnccc2c1.Cl` [Example 94, (R)—N-[1-{2-(1H-1,2,3-triazol-4-yl)ethylamino}propan-2-yl]isoquinoline-6-sulfonamide hydrochloride], the Ocular hypotensive activity entry is given as “++ (maximum ocular hypotensive rate of 15% or more)”.

Consider `C[C@H](CNCCCc1c[nH]c2ccccc12)NS(=O)(=O)c1ccc2cnccc2c1` [Example 80, (R)—N-[1-{3-(1H-indol-3-yl)propylamino}propan-2-yl]isoquinoline-6-sulfonamide dihydrochloride], for which the Ocular hypotensive activity entry was “++ (maximum ocular hypotensive rate of 15% or more)”.

Consider `CC(C)CCNC[C@@H](C)NS(=O)(=O)c1ccc2cnccc2c1.Cl` [Example 21, (R)—N-{1-(isopentylamino)propan-2-yl}isoquinoline-6-sulfonamide hydrochloride], for which the Ocular hypotensive activity result is “+ (maximum ocular hypotensive rate of 5% or more and less than 15%)”.

Turning to `C[C@H](CNCCc1ccc([N+](=O)[O-])cc1)NS(=O)(=O)c1ccc2cnccc2c1.Cl` [Example 59, (R)—N-{1-(4-nitrophenethylamino)propan-2-yl}isoquinoline-6-sulfonamide hydrochloride], the Ocular hypotensive activity entry is given as “++ (maximum ocular hypotensive rate of 15% or more)”.

Consider `CNC[C@@H](C)NS(=O)(=O)c1ccc2cnccc2c1` [Example 2, (R)—N-{1-(methylamino)propan-2-yl}isoquinoline-6-sulfonamide dihydrochloride], for which the Ocular hypotensive activity result is “++ (maximum ocular hypotensive rate of 15% or more)”.

Take `CC(C)CNC[C@@H](C)NS(=O)(=O)c1ccc2cnccc2c1` [Example 14, (R)—N-{1-(isobutylamino)propan-2-yl}isoquinoline-6-sulfonamide dihydrochloride]: the Ocular hypotensive activity result is reported as “++ (maximum ocular hypotensive rate of 15% or more)”.

In the case of `CCCCNC[C@H](C)NS(=O)(=O)c1ccc2cnccc2c1` [Example 6, (S)—N-{1-(butylamino)propan-2-yl}isoquinoline-6-sulfonamide dihydrochloride], the Ocular hypotensive activity result was “++ (maximum ocular hypotensive rate of 15% or more)”.
